Measured values published in ChEMBL document CHEMBL5518180, “Design, synthesis, and biological evaluation of harmine derivatives as topoisomerase I inhibitors for cancer treatment” (Eur J Med Chem, 2024).
Active and inactive are the calls of the source. No cut-off for these calls is given here.

Columns and labels:
HepG2 = test: Antiproliferative activity against human HepG2 cells assessed as inhibition of cell growth incubated for 48 hrs by MTT assay; format: functional, cell-based; conditions: HepG2, 48 h
A549 = test: Antiproliferative activity against human A549 cells assessed as inhibition of cell growth incubated for 48 hrs by MTT assay; format: functional, cell-based; conditions: A549, 48 h
[1] = Cytotoxicity against human L02 cells assessed as inhibition of cell growth incubated for 48 hrs by MTT assay; format: toxicity, cell-based
MCF7 [2] = test: Antimigratory activity against human MCF7 cells assessed as wound healing rate at 0.5 uM incubated for 24 hrs by inverted fluorescence microscopic analysis (reference value: 42.5 %); format: functional
MCF7 [3] = test: Antimigratory activity against human MCF7 cells assessed as reduction in penetration of cells in transwell membrane at 0.125 to 0.5 uM incubated for 24 hrs by crystal violet staining based inverted fluorescence microscopic analysis; format: functional, cell-based; conditions: dose 0.125-0.5 µM
MCF7 [4] = test: Induction of apoptosis in human MCF7 cells assessed as early apoptotic cells at 0.1 uM incubated for 24 hrs by Annexin V-FITC/Propidium Iodide staining based flow cytometry analysis (reference value: 2.54 %); format: functional
MCF7 [5] = test: Induction of apoptosis in human MCF7 cells assessed as necrotic cells at 0.1 uM incubated for 24 hrs by Annexin V-FITC/Propidium Iodide staining based flow cytometry analysis (reference value: 0.082 %); format: functional
MCF7 [6] = test: Induction of apoptosis in human MCF7 cells assessed as early apoptotic cells at 0.5 uM incubated for 24 hrs by Annexin V-FITC/Propidium Iodide staining based flow cytometry analysis (reference value: 2.54 %); format: functional
MCF7 [7] = test: Induction of apoptosis in human MCF7 cells assessed as necrotic cells at 0.5 uM incubated for 24 hrs by Annexin V-FITC/Propidium Iodide staining based flow cytometry analysis (reference value: 0.082 %); format: functional
MCF7 [8] = test: Induction of apoptosis in human MCF7 cells assessed as viable cells at 2 uM incubated for 24 hrs by Annexin V-FITC/Propidium Iodide staining based flow cytometry analysis (reference value: 91.8 %); format: functional; conditions: read-out: Activity
MCF7 [9] = test: Induction of apoptosis in human MCF7 cells assessed as early apoptotic cells at 2 uM incubated for 24 hrs by Annexin V-FITC/Propidium Iodide staining based flow cytometry analysis (reference value: 2.54 %); format: functional
MCF7 [10] = test: Induction of apoptosis in human MCF7 cells assessed as late apoptotic cells at 2 uM incubated for 24 hrs by Annexin V-FITC/Propidium Iodide staining based flow cytometry analysis (reference value: 5.58 %); format: functional
MCF7 [11] = test: Induction of apoptosis in human MCF7 cells assessed as increase in cleaved-PARP protein expression incubated for 24 hrs by Western blotting analysis; format: functional, cell-based; conditions: dose 0.1-2 µM
4T1 [12] = test: Antitumor activity against mouse 4T1 cells transplanted in BALB/c mouse assessed as tumor growth inhibition rate at 5 mg/kg, ip administered for 14 days relative to control; format: functional; conditions: 4T1, 336 h, time 14 day, read-out: TGI
4T1 [13] = test: Antitumor activity against mouse 4T1 cells transplanted in BALB/c mouse assessed as tumor growth inhibition administered for 14 days; format: functional; conditions: dose 5-20 mg/kg, route ip, time 14.0 day
4T1 [14] = test: Antitumor activity against mouse 4T1 cells transplanted in BALB/c mouse assessed as inhibition of tumor volume at 10 mg/kg, ip administered for 14 days; format: functional, organism-based; conditions: time 14.0 day
4T1 [15] = test: Antitumor activity against mouse 4T1 cells transplanted in BALB/c mouse assessed as tumor growth inhibition rate at 10 mg/kg, ip administered for 14 days relative to control; format: functional; set-up: scale not given: the % may be the effect or the level left; conditions: time 14 day
[16] = Toxicity in BALB/c mouse transplanted with […] cells assessed as lung damage at 5 to 20 mg/kg, ip administered for 14 days by hematoxylin and eosin staining based analysis; format: organism-based; conditions: in vivo, 336 h, dose 5-20 mg/kg, time 14 day
[17] = Toxicity in BALB/c mouse transplanted with […] cells assessed as kidney damage at 5 to 20 mg/kg, ip administered for 14 days by hematoxylin and eosin staining based analysis; format: organism-based; conditions: in vivo, 336 h, dose 5-20 mg/kg, time 14 day
[18] = Toxicity in BALB/c mouse transplanted with […] cells assessed as change in serum aspartate aminotransferase level at 5 to 20 mg/kg, ip administered for 14 days by biochemical analysis; format: organism-based; conditions: in vivo, 336 h, dose 5-20 mg/kg, time 14 day
[19] = Toxicity in BALB/c mouse transplanted with […] cells assessed as change in blood urea nitrogen level at 5 to 20 mg/kg, ip administered for 14 days by biochemical analysis; format: organism-based; conditions: in vivo, 336 h, dose 5-20 mg/kg, time 14 day
[20] = Toxicity in BALB/c mouse transplanted with […] cells assessed as change in creatinine level at 5 to 20 mg/kg, ip administered for 14 days by biochemical analysis; format: organism-based; conditions: in vivo, 336 h, dose 5-20 mg/kg, time 14 day
[21] = Toxicity in BALB/c mouse transplanted with […] cells assessed as change in creatine kinase level at 5 to 20 mg/kg, ip administered for 14 days by biochemical analysis; format: organism-based; conditions: in vivo, 336 h, dose 5-20 mg/kg, time 14 day
4T1 [22] = test: Antitumor activity against mouse 4T1 cells transplanted in BALB/c mouse assessed as tumor growth inhibition rate at 20 mg/kg, ip administered for 14 days relative to control; format: functional; conditions: 4T1, 336 h, time 14 day, read-out: TGI

Compound: O=C(/C=C/c1ccc(Cl)c([N+](=O)[O-])c1)c1nccc2c1[nH]c1ccccc12
- IC50 (HepG2): 1610 nM
- IC50 (A549): 2020 nM
- IC50 at 48 h [1]: 9610 nM
- Activity (MCF7 [2]): 1.4%
- Activity (MCF7 [3]): Active
- Activity (MCF7 [4]): 7.52%
- Activity (MCF7 [5]): 0.12%
- Activity (MCF7 [6]): 20.1%
- Activity (MCF7 [7]): 0.27%
- viability at 2 µM (MCF7 [8]): 60.6%
- Activity (MCF7 [9]): 7.59%
- Activity (MCF7 [10]): 30.8%
- Activity (MCF7 [11]): Dose-Dependent Effect
- inhibition in vivo at 5 mg/kg (4T1 [12]): 21.7%
- TGI (4T1 [13]): Dose-Dependent Effect
- Activity (4T1 [14]): Active
- Activity (4T1 [15]): 43.19%
- Activity [16]: Non-Toxic
- Activity [17]: Non-Toxic
- Activity [18]: Non-Toxic
- Activity [19]: Non-Toxic
- Activity [20]: Non-Toxic
- Activity [21]: Non-Toxic
- inhibition in vivo at 20 mg/kg (4T1 [22]): 63.9%
